# How the values were obtained:
# [1] = molecular target: T1, Cyclin-dependent kinase 2/G1/S-specific cyclin-E1 (Homo sapiens, UniProt P24941); assay: In Vitro Kinase Assay
# Excerpt: (§1) Inhibition of in vitro kinase activity of purified CDKs.
# [2] = molecular target: T2, Cyclin-dependent kinase/G2/mitotic-specific cyclin- 1 (Homo sapiens, UniProt P06493); assay: In Vitro Kinase Assay
# Excerpt: as §1
# [3] = molecular target: T3, Cyclin-dependent kinase 4/G1/S-specific cyclin-D1 (Homo sapiens, UniProt P11802); assay: In Vitro Kinase Assay
# T3 sequence (P11802 whole entry): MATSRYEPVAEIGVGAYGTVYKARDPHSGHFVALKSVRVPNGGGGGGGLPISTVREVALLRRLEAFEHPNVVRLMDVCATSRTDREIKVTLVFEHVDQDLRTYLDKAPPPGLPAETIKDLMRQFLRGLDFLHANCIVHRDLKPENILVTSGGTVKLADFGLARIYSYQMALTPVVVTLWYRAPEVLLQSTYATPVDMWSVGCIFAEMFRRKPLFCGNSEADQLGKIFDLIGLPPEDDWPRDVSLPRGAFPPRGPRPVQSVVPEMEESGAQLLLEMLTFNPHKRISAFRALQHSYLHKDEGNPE
# T3 sequence (P24385 whole entry, further chain): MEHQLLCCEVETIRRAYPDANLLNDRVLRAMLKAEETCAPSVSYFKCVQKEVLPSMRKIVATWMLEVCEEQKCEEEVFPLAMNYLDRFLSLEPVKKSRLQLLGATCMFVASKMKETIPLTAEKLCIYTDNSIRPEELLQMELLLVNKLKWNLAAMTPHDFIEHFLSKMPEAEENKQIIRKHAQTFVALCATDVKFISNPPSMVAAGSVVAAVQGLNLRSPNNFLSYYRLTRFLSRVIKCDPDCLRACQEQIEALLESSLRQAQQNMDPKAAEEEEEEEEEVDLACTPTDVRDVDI
# Excerpt: as §1
# [4] = molecular target: T2, Cyclin-dependent kinase/G2/mitotic-specific cyclin- 1; assay: Cell Proliferation Assay
# Protocol: Inhibition of HCT116 cell proliferation after 72hr of incubation with compounds was determined by SRB Assay.
# [5] = molecular target: T2, Cyclin-dependent kinase/G2/mitotic-specific cyclin- 1; assay: Cell Proliferation Assay; remark: listed apart in the source
# Excerpt: Inhibition of HCT116 cell proliferation with compounds using calcein AM Assay.
# [6] = molecular target: T1, Cyclin-dependent kinase 2/G1/S-specific cyclin-E1; assay: Inhibition Assay
# Excerpt: (§2) In vitro kinase activity of PEGylated pyrazolopyrimidone CDK inhibitor or a 5 PEG-amine was coupled to ReactiGel agarose beads (Pierce, No. 20259).
# [7] = molecular target: T2, Cyclin-dependent kinase/G2/mitotic-specific cyclin- 1; assay: Inhibition Assay
# Excerpt: as §2
# [8] = molecular target: T3, Cyclin-dependent kinase 4/G1/S-specific cyclin-D1; assay: Inhibition Assay
# Excerpt: as §2
# [9] = molecular target: Cyclin-dependent kinase 5 (Homo sapiens, UniProt Q00535); assay: In Vitro Kinase Assay
# Sequence of Cyclin-dependent kinase 5 (Q00535 whole entry): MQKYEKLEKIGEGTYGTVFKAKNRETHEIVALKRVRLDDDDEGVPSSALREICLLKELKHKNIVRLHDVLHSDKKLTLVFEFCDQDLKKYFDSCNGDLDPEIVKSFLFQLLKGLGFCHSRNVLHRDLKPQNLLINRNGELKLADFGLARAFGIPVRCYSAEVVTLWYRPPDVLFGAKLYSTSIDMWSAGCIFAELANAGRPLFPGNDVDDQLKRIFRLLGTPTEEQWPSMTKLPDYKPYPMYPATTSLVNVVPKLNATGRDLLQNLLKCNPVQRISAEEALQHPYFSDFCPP
# Excerpt: as §1
# [10] = molecular target: T4, CDK-activating kinase assembly factor MAT1 (Homo sapiens, UniProt P51948); assay: In Vitro Kinase Assay
# T4 sequence (P51948 whole entry): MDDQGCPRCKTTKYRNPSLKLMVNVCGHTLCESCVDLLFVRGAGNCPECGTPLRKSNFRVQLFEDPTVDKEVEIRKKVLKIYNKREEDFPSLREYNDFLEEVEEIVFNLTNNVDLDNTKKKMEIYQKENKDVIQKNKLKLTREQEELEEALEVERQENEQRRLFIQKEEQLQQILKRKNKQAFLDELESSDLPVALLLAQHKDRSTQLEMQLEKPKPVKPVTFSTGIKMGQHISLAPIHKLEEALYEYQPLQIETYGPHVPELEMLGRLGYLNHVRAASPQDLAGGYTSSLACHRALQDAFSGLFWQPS
# Excerpt: as §1
# [11] = molecular target: CDK3/Cyclin E (Homo sapiens, UniProt Q00526); assay: In Vitro Kinase Assay
# Sequence of CDK3/Cyclin E (P24864 whole entry): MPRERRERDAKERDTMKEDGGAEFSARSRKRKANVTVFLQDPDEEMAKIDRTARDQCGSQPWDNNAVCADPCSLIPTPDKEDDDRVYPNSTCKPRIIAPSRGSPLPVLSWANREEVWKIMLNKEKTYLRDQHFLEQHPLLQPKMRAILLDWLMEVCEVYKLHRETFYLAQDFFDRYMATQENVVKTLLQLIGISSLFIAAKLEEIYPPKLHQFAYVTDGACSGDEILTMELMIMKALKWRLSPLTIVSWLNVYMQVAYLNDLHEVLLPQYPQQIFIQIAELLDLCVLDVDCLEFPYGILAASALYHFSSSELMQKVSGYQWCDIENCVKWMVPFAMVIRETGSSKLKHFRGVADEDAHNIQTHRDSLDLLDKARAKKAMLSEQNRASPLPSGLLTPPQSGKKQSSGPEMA
# Sequence of CDK3/Cyclin E (Q00526 whole entry): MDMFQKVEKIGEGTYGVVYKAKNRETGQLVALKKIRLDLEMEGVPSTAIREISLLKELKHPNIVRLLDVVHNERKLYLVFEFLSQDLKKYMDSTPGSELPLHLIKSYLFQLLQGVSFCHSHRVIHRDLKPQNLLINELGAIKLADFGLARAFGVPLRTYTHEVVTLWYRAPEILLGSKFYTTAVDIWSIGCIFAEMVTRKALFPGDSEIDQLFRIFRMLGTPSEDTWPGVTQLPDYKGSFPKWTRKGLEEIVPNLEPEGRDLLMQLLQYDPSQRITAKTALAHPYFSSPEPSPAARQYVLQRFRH
# Excerpt: as §1
# [12] = molecular target: Cyclin-dependent kinase 6/G1/S-specific cyclin-D3 (Homo sapiens, UniProt Q00534); assay: In Vitro Kinase Assay
# Sequence of Cyclin-dependent kinase 6/G1/S-specific cyclin-D3 (Q00534 whole entry): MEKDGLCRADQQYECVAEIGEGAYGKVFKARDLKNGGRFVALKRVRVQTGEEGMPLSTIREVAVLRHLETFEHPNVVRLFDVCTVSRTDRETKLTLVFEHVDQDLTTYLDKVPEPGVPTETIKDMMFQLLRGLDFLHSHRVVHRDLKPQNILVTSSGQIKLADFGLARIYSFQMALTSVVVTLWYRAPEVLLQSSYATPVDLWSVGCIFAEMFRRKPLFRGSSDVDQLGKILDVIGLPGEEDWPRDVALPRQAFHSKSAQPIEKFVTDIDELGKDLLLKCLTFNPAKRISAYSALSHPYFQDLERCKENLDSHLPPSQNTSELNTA
# Sequence of Cyclin-dependent kinase 6/G1/S-specific cyclin-D3 (P30281 whole entry, further chain): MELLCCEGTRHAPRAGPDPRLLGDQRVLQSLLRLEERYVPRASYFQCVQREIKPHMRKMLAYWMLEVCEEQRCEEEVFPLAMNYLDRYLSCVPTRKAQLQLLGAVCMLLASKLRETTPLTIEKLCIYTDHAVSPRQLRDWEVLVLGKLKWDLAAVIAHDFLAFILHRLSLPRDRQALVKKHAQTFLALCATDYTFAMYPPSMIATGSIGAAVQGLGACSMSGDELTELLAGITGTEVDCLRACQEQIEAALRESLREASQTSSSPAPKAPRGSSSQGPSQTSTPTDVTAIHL
# Excerpt: as §1
# [13] = molecular target: Glycogen synthase kinase-3 beta (Homo sapiens, UniProt P49841); assay: In Vitro Kinase Assay
# Sequence of Glycogen synthase kinase-3 beta (P49841 whole entry): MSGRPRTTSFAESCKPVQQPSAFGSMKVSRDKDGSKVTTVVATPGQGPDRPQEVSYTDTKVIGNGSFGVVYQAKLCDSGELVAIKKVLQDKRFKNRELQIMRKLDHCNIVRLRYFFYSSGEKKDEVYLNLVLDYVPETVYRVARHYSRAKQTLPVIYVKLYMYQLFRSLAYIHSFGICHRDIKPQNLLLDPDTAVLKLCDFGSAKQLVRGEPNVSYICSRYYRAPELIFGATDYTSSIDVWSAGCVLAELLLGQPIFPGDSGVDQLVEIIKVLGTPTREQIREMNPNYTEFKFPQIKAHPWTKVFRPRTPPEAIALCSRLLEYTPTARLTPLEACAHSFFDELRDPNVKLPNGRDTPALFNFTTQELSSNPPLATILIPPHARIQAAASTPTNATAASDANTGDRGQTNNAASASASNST
# T2 sequence (P06493 whole entry): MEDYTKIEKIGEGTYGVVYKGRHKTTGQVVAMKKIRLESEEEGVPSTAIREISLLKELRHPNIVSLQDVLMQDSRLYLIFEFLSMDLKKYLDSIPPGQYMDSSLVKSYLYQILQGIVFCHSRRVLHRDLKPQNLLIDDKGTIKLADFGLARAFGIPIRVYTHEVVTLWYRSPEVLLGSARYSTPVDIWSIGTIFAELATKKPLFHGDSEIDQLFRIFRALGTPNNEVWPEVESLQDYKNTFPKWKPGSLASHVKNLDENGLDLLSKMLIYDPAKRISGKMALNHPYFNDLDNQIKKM
# T2 sequence (P14635 whole entry, further chain): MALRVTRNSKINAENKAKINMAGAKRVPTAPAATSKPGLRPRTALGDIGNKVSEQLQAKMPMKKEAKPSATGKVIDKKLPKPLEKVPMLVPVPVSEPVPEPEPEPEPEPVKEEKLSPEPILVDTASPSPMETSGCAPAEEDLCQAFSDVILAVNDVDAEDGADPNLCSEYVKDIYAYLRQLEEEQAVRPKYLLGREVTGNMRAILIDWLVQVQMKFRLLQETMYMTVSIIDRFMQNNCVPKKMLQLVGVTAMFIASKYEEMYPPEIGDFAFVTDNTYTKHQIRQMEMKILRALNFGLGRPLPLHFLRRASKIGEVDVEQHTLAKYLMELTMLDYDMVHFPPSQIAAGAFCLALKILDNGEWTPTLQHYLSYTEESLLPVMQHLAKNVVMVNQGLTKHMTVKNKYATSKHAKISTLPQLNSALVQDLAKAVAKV
structure (smiles),measurement,setting,value
"CC(C)c1nn(-c2c(Cl)cccc2Cl)c2nc(Cc3ccc(OCCN4CCOCC4)cc3)[nH]c(=O)c12 [Pyrazolopyrimidone analog, RGB-285960]",IC50,[1],9 nM
same,IC50,[2],310 nM
same,IC50,[3],1750 nM
same,IC50,[4],64 nM
"COc1ccc(Cc2nc3c(c(C(C)C)nn3-c3c(Cl)cc(Cl)cc3Cl)c(=O)[nH]2)cc1 [Pyrazolopyrimidone analog, RGB-285940]",IC50,[1],7 nM
same,IC50,[2],230 nM
same,IC50,[3],858 nM
same,IC50,[4],410 nM
"COc1ccc(Cc2nc3n[nH]c(C(C)C)c3c(=O)[nH]2)cc1 [Pyrazolopyrimidone analog, RGB-310595]",IC50,[4],> 10000 nM
"COCCOCCOCCOc1ccc(Cc2nc3c(c(C(C)C)nn3-c3c(Cl)cccc3Cl)c(=O)[nH]2)cc1 [PEGylated derivative, RGB-286276]",IC50,[5],34 nM
same,IC50,[6],22 nM
same,IC50,[7],84 nM
same,IC50,[8],890 nM
"COc1ccc(Cc2nc3c(c(C(C)C)nn3-c3ccccc3)c(=O)[nH]2)cc1 [Pyrazolopyrimidone analog, RGB-310596]",IC50,[4],> 10000 nM
"COc1ccc(Cc2nc3c(c(C(C)C)nn3-c3c(Cl)cccc3Cl)c(=O)[nH]2)cc1 [Pyrazolopyrimidone analog, RGB-286331]",IC50,[1],4 nM
same,IC50,[2],43 nM
same,IC50,[4],220 nM
"COc1ccc(Cc2nc3c(cnn3-c3c(Cl)cc(Cl)cc3Cl)c(=O)[nH]2)cc1 [Pyrazolopyrimidone analog, RGB-310590]",IC50,[4],5500 nM
"CC(C)c1nn(-c2c(Cl)cccc2Cl)c2nc(Cc3ccc(OCCO)cc3)[nH]c(=O)c12 [Pyrazolopyrimidone analog, RGB-286147]",IC50,[9],10 nM
same,IC50,[1],15 nM
same,IC50,[10],71 nM
same,IC50,[11],9 nM
same,IC50,[2],48 nM
same,IC50,[3],839 nM
same,IC50,[12],282 nM
same,IC50,[13],754 nM
same,IC50,[4],51 nM
"COc1ccc(Cc2nc3c(c(Cc4ccccc4)nn3-c3c(Cl)cc(Cl)cc3Cl)c(=O)[nH]2)cc1 [Pyrazolopyrimidone analog, RGB-310591]",IC50,[4],> 10000 nM

# Reference: BindingDB's records for doi:10.1016/j.chembiol.2005.08.008 (Gpc Biotech, 2005)
